For orientation: IC50 means the point on the concentration scale where inhibition reaches its midpoint.

For data set [1] the following is noted: converted to the inactive carboxylate form; cited from earlier work.
A further data set relates to HCT116. The data set is described as follows: Anti-proliferative activity assay, HCT116. The class given is cell-based, human. As to conditions: HCT116 colorectal cancer cells, 4 days, WST-8, read-out: Anti-proliferative activity assay (IC50 in nM) HCT116 (CRC). On the procedure: (§1) Antiproliferative activity assay was carried out as follows. A single suspension of tumor cells was inoculated to the serially diluted 96-well microtestplate. Then the testplate was incubated in the 5% CO2 ambience at 37° C. for 4 days (2-3×10^3 cells/well). The degree of cell growth in a monolayer was measured by using WST-8 (Dojindo, Japan). IC50 values of drugs against tumor cells were calculated as the concentration of drug yielding 50% OD of the control growth. The IC50 value measures the drug concentration for 50% of the growth of tumor cells in vitro as compared to the control.
(§2) The anti-tumor activities of hexacyclic compounds of the formula [1A] and [1B] against in vitro growth of human tumor cell lines, HCT116 and DLD-1 of colorectal cancer (CRC) and QG56 and NCI-H460 of non small cell lung cancer (NSCLC) are summarized in Table 1. These cell lines are commercially available via the American Type Culture Collection (ATTC).

For a further data set, the system named is DLD-1. The data set is described as follows: Anti-proliferative activity assay, DLD-1. The class given is cell-based, human. The note with it: DLD-1 colorectal cancer cells, 4 days, WST-8, read-out: Anti-proliferative activity assay (IC50 in nM) DLD-1 (CRC). On the procedure:
as §1, §2
In general terms: Tetrazolium assays rely on reduction of a dye to a coloured formazan, in cell work by metabolically active cells.

A further data set deals with QG56. The data set is described as follows: Anti-proliferative activity assay, QG56. The class given is cell-based, human. As to conditions: QG56 non small cell lung cancer cells, 4 days, WST-8, read-out: Anti-proliferative activity assay (IC50 in nM) QG56 (NSCLC). On the procedure: as §1, §2
For a further data set, the system named is NCI-H460. As to the kind of experiment: Anti-proliferative activity assay, NCI-H460. It counts as cell-based, human. The note with it: NCI-H460 non small cell lung cancer cells, 4 days, WST-8, read-out: Anti-proliferative activity assay (IC50 in nM) NCI-H460 (NSCLC). On the procedure: as §1, §2

Like-named read-outs stand apart in the source and are kept apart here.

Consider `CC[C@@]1(O)C(=O)OCc2c1cc1n(c2=O)Cc2cc3ccccc3nc2-1` [camptothecin, 4(S)-ethyl-4-hydroxy-1H-pyrano[3′,4′:6,7]indolizino[1,2-b]quinoline-3,14(4H,12H)-dione], for which the half-life in plasma entry in data set [1] is given as “less than 30 min”.
As for `CC[C@@]1(O)C(=O)OCc2c1cc1n(c2=O)Cc2c-1nc1cccc3c1c2N(CCC(C)C)C(CO)=N3` [Compound F, (9S)-9-ethyl-9-hydroxy-2-hydroxymethyl-1-(3-methylbutyl)-1H,12H-pyrano[3″,4″:6′,7′]indolizino[1′,2′:6,5]pyrido[4,3,2-de]quinazoline-10,13(9H,15H)-dione], the concentration for half-maximal inhibition (IC50) in the data set on HCT116 (Homo sapiens, HCT-116, 96 h) came out at 3.1 nM; in the data set with DLD-1 (Homo sapiens, 96 h), 12 nM; in the data set with QG56 (Homo sapiens, QG-56, 96 h) it was 7.4 nM; with NCI-H460 (Homo sapiens, 96 h), 4.8 nM.
Turning to `CC[C@@]1(O)C(=O)OCc2c1cc1n(c2=O)Cc2c-1nc1cccc3c1c2NC(=S)N3CCC(C)C` [Compound D, (9S)-9-ethyl-9-hydroxy-1-(3-methylbutyl)-2(3H)-thioxo-1H,12H-pyrano[3″,4″:6′,7′]indolizino[1′,2′:6,5]pyrido[4,3,2-de]quinazoline-10,13(9H,15H)-dione], the IC50 in the data set on HCT116 stood at 5.1 nM; in the data set on DLD-1, 15 nM; in the data set with QG56, 17 nM; in the data set with NCI-H460 it was 10 nM.
For the molecule `CC[C@@]1(O)C(=O)OCc2c1cc1n(c2=O)Cc2c-1nc1cccc3c1c2N(CCc1ccccc1)C(=O)N3` [Compound A, (9S)-9-ethyl-9-hydroxy-1-phenethyl-1H,12H-pyrano[3″,4″:6′,7′]indolizino[1′,2′:6,5]pyrido[4,3,2-de]quinazoline-2,10,13(3H,9H,15H)-trione], the IC50 in the data set on HCT116 (Homo sapiens, HCT-116, 96 h) came to 1.9 nM; with DLD-1 (Homo sapiens, 96 h), 11 nM; in the data set with QG56 (Homo sapiens, QG-56, 96 h) it was 7.1 nM; in the data set with NCI-H460 (Homo sapiens, 96 h), 6.5 nM.
Consider `CCc1c2c(nc3ccc(O)cc13)-c1cc3c(c(=O)n1C2)COC(=O)[C@]3(O)CC` [SN-38, 7-ethyl-10-hydroxycamptothecin, reference compound], for which the IC50 with HCT116 amounted to 6.9 nM; in the data set with DLD-1, 53 nM; with QG56, 27 nM; in the data set with NCI-H460 it was 21 nM.
Take `CCCCCN1C=Nc2cccc3nc4c(c1c23)Cn1c-4cc2c(c1=O)COC(=O)[C@]2(O)CC` [Compound B, (9S)-9-ethyl-9-hydroxy-1-pentyl-1H,12H-pyrano[3″,4″:6′,7′]indolizino[1′,2′:6,5]pyrido[4,3,2-de]quinazoline-10,13(9H,15H)-dione]: the half-maximal inhibitory concentration (IC50) in the data set on HCT116 (Homo sapiens, HCT-116, 96 h) stood at 6.1 nM; with DLD-1 (Homo sapiens, 96 h), 23 nM; with QG56 (Homo sapiens, QG-56, 96 h) it was 7.7 nM; in the data set with NCI-H460 (Homo sapiens, 96 h) it was 7 nM.
In the same order, the values of `CCCCCN1C(C)=Nc2cccc3nc4c(c1c23)Cn1c-4cc2c(c1=O)COC(=O)[C@]2(O)CC` [Compound E, (9S)-9-ethyl-9-hydroxy-2-methyl-1-pentyl-1H,12H-pyrano[3″,4″:6′,7′]indolizino[1′,2′:6,5]pyrido[4,3,2-de]quinazoline-10,13(9H,15H)-dione] are 4.5 nM, 15 nM, 15 nM and 7.9 nM.

The values above are taken from patent publication US6825194B2, “Hexacyclic compounds” (Chugai Seiyaku Kabushiki Kaisha, priority 2001, dated 2004).
